Laboratory results published in US20170224833A1, “SELF-ASSEMBLING MOLECULES THAT ACCUMULATE IN ACIDIC TUMOR MICROENVIRONMENTS” (OHIO STATE INNOVATION FOUNDATION, priority 2014, published 2017).
Residues, ends and D or L forms follow the SMILES beside them. No end group written: not given here. *: point of attachment. Rubipy = bis(2,2'-bipyridine)-4'-methyl-4-carboxybipyridine ruthenium(II), conjugated to the lysine epsilon-amine; Palmitoyl = CCCCCCCCCCCCCCCC(=O)*

Key:
Assay type in all cases: physicochemical
[1] = MRI r1 relaxivity measurement, 1.5 Tesla; conditions: control standard, 1.5 T
Method: An MR relaxometry phantom was built by fixing 5 mm NMR sample tubes containing PA samples at a concentration of 500 μM and pH values 4 and 10 in a 600 ml beaker filled with deionized water. The samples also contained 150 mM NaCl and 2.2 mM CaCl2. The phantom was scanned on a 1.5 Tesla Signa Excite MRI scanner using an 8-channel phased-array head coil (GE Healthcare, Milwaukee, Wis., USA). R relaxometry data were acquired using an Inversion Recovery Fast Spin-Echo (IR-FSE) sequence with the following parameters: inversion time TI=50/100/200/400/600/800/1200/1600/3200 ms; repetition time TR=8000 ms; echo time TE=11 ms; echo train length=10; 90° flip angle; 100×100 mm^2 field-of-view (FOV); 0.5 mm in-plane resolution; 2 mm slice thickness; single coronal slice placed at the center of the phantom. Sample longitudinal relaxation rates (R1) were calculated by fitting the MR signal intensities observed at different TIs (S(TI)) to a three parameter model [Lu et al., MRM 2004]:
S(TI)=|S0×(1−C×exp(−TI×R1))|
Where S0 is the equilibrium signal, C is a constant accounting for imperfect inversion of magnetization. The r1 relaxivity was calculated as the slope in the linear relationship between sample concentrations and their R1 relaxation rates.

[2] = Circular dichroism (CD) spectroscopy of pH-triggered self-assembly transition in 150 mM NaCl, 2.2 mM CaCl2; conditions: for CD Transition pH: 10 μM PA, 150 mM NaCl, 2.2 mM CaCl2, random coil to β-sheet
Method: The target PA concentration (10 μM) was below the detectable limit of conventional techniques to determine the morphology such as cryoTEM and small-angle X-ray scattering. Consequently, circular dichroism (CD) spectroscopy was initially used to characterize the morphology of these PAs at various pH values. PA1 was the first molecule synthesized that underwent a self-assembly transition in the desired pH range of 6.6-7.4 at 10 μM PA concentration, in 150 mM NaCl and 2.2 mM CaCl2 (FIG. 2A) (Goldberger, J. E., et al. Angew. Chem. Int. Ed. 2011 50:6292-95). […] The transition pH from random coil to β-sheet occurred at a pH of 6.6. The transition pH was defined as the value at which the ellipticity at 205 nm rises to zero, followed by the appearance of a minimum at 218-220 nm.
Measurements were done on a Jasco-815 Circular Dichroism spectrometer using 1 cm path length quartz cuvettes. 10 μM solutions of peptide amphiphiles were prepared in 150 mM NaCl and 2.2 mM CaCl2 by dilution from a concentrated PA stock (0.5-1 mM, pH 9). Double de-ionized Milli-Q water was used for preparing all solutions. The solutions were then heated at 80° C. for 30 minutes in a water bath and gradually cooled to room temperature. An Accumet XL15 pH meter (Fisher Scientific) coupled with an Orion Ross Ultra semi-micro electrode (8103BNUWP, Thermo Scientific) was used to adjust the pH of the solution to the desired value followed by collection of the CD spectra Each trace shown was averaged over 3 accumulations and was baseline subtracted using aqueous solutions containing salts only. All spectra are cut-off below 205 nm due to absorption by NaCl and CaCl2.
Measurements were done on a Jasco-815 Circular Dichroism spectrometer using 0.5-1 cm path length quartz cuvettes. 500-10 μM of either pure PA or PA mixtures were prepared in 150 mM NaCl and 2.2 mM CaCl2 (and 1.8 mM 20 kDa PEG in select samples) by dilution from a concentrated PA stock (0.5-1 mM, pH 9). Double de-ionized Milli-Q water was used for preparing all solutions. The solutions were then heated at 80° C. for 30 minutes in a water bath and gradually cooled to room temperature. An Accumet XL15 pH meter (Fisher Scientific) coupled with an Orion Ross Ultra semi-micro electrode (8103BNUWP, Thermo Scientific) was used to adjust the pH of the solution to the desired value followed by collection of the CD spectra. Each trace shown was averaged over 3 accumulations and was baseline subtracted using aqueous solutions containing salts only. All spectra are cut-off below 200 nm due to absorption by NaCl and CaCl2. The same procedure was followed for the salt control samples with 3.0 and 4.0 mM CaCl2.
Self-assembly behavior is known to be extremely sensitive to minor changes in monomer structure and presence of impurities. […] CAC measurements via the pyrene 1:3 method (Das, D. et al. J. Colloid Interface Sci. 2008, 327:198) were used to ascertain the single molecule to spherical micelle transitions at varying pH values (FIGS. 24A-24C). CD Spectroscopy was used to determine the pH points at which different concentrations (10-500 μM) of the PA molecules transitioned from a random coil to a β-sheet secondary structure (FIGS. 25A-25C). It has been previously shown that the random coil and β-sheet structures correspond to spherical micellar/isolated molecule and nanofiber morphologies respectively (Ghosh, A. et al. J. Am. Chem. Soc. 2012, 134:3647). The CD transition point was defined to be the pH value at which the ellipticity at 200 nm rose from a negative value (random coil) to zero accompanied by the appearance of a minimum at 218-220 nm. The addition of PA66 shifted the CD transition pH to more basic values by ˜0.6 pH units. […] This ˜0.6 pH shift in CD transition pH to more basic values were also observed when 1.5% of PA67 was added to PA65. […]

[3] = pH titration of peptide amphiphiles (pKa); conditions: 10 μM
Method: The titration measurements were conducted on 10 μM peptide amphiphile solutions prepared in 150 mM NaCl and 2.2 mM CaCl2 using milli-Q water. The solution was heated at 80° C. for 30 minutes followed by slow cooling at room temperature. The pH of the solution was then adjusted to 4 using HCl. Finally, an Accumet XL15 pH meter (Fisher Scientific) coupled with an Orion Ross Ultra semi-micro electrode (8103BNUWP, Thermo Scientific) was used to track changes in pH of the solution as NaOH solution was added in small increments. pKa values were obtained from the second inflection points of the first derivative plots of the titration data. The first transition corresponds to neutralization of excess HCl. The calculated pKas reflect the average pKa for all four glutamic acids.

[4] = Fluorescence anisotropy (FA) in mouse blood serum (pure or diluted); conditions: only 1.5% PA67 isolated molecules in serum (control)
Method: Fluorescence and FA measurements were done using 20-100 μM of PA mixtures in 150 mM NaCl and 2.2 mM CaCl2 and various serum (MP Biomedicals) concentrations (0.75-100% v/v) diluted in the same salt buffer. PA samples in serum or MSA were not heated and cooled. All samples were then pH adjusted using HCl/NaOH solutions, transferred to a 96-well plate followed by collection of fluorescence emission from PA-(Rubipy)3 first parallel (Ipar) and then perpendicular (Iperp) to the excitation polarization using a hybrid reader fluorimeter (BioTek Synergy H4) at room temperature. The excitation wavelength used was 458 nm and the emission was monitored using a 640/20 nm filter. The same method was followed for control experiments involving serum background samples, dye conjugated MSA, only 1.5% PA-(Rubipy)3 in serum and 100 μM PA mixture in MSA and salt buffer. FA was calculated using the following equation: […]

[5] = Transmission electron microscopy (TEM) of self-assembled morphology
Method: TEM images were obtained using solutions of either 10 μM or 0.5 mM peptide amphiphile concentration, as well as 150 mM NaCl and 2.2 mM CaCl2 in Milli-Q water. The solutions were first heated at 80° C. for 30 minutes in a water bath and then gradually cooled to room temperature. This was followed by pH adjustment using either HCl or NaOH. 5 μL of this solution was pipetted onto a Carbon Formvar grid (Electron Microscopy Sciences) and allowed to sit for 2 minutes before being wicked dry using filter paper. For the 10 μM experiments that were performed to determine the time dependence of nanofiber formation, solutions were dropcast onto the grid within three minutes of pH adjustment. The samples were then negatively stained using 1 wt % uranyl acetate and imaged under a FEI Tecnai G2 Bio TWIN TEM system, operating at 100 kV. All TEM experiments were performed in triplicate, using at least three different freshly prepared solutions and grids. […]
TEM images were obtained at various concentrations and pH values, with 150 mM NaCl and 2.2 mM CaCl2 in deionized water. Solutions were heated at 80° C. for 30 minutes and gradually cooled to room temperature. Following temperature equilibration, pH adjustment was achieved using HCl or NaOH. 5 μL of this solution was pipetted onto a Carbon Formvar grid (Electron Microscopy Sciences) and allowed to sit for 2 minutes before being wicked dry using filter paper strips. The samples were negatively stained with 1 wt % uranyl acetate and imaged under a FEI Tecnai G2 Bio TWIN TEM system operating at 100 kV.
Transmission electron microscopy was employed to confirm the self-assembled morphology at different pH values and concentrations. The sample to be tested was basified to a pH of 10, stirred at 90° C. in an oil bath for 30 minutes and cooled to room temperature. The pH was then adjusted with HCl and NaOH to set the peptide solution (in 150 mM NaCl and 2.2 mM CaCl2) to a pH of either 5 or 9. Once the desired pH was reached, 5 μL of the sample was placed and spread onto a Carbon Formvar grid (Electron Microscopy Sciences) and allowed to sit for one minute before being wicked dry with filter paper. A 1 wt % uranyl acetate solution was added and spread over the grid to negatively stain the sample, and was wicked dry immediately after application. The grid was then examined by a FEI Tecnai G2 Biotwin TEM at 100 keV. The diameters of each self-assembled morphology was determined via averaging at least 30 different objects.

[6] = basic to acidic transition from small molecule to cylindrical nanofiber, simulated serum environment
[7] = basic to acidic transition from spherical micelle to cylindrical fiber, simulated serum environment (150 mM NaC, 2.2 mM CaCl2)

In the case of `CNC[C@H](O)[C@@H](O)[C@H](O)[C@H](O)CO.CNC[C@H](O)[C@@H](O)[C@H](O)[C@H](O)CO.O=C([O-])CN(CCN(CC(=O)[O-])CC(=O)O)CCN(CC(=O)[O-])CC(=O)O.[Gd+3]` [Magnevist, reference compound], the “relaxivity of water protons” value [1] is reported as 4.5 mM⁻¹ s⁻¹.
For `CCCCCCCCCCCCCCCC(=O)N[C@@H](Cc1ccccc1)C(=O)N[C@@H](C)C(=O)N[C@@H](C)C(=O)N[C@@H](C)C(=O)N[C@@H](CCC(=O)O)C(=O)N[C@@H](CCC(=O)O)C(=O)N[C@@H](CCC(=O)O)C(=O)N[C@@H](CCC(=O)O)C(N)=O` [PA2] (Palmitoyl-FAAAEEEE-NH2), the “CD Transition pH” value [2] was 6.6 and the “pH transition point at 10 μm PA” value [2, 6] was 6.6.
For `CCCCCCCCCCCCCCCC(=O)N[C@@H](Cc1ccc(O)cc1)C(=O)N[C@@H](C)C(=O)N[C@@H](C)C(=O)N[C@@H](C)C(=O)N[C@@H](CCC(=O)O)C(=O)N[C@@H](CCC(=O)O)C(=O)N[C@@H](CCC(=O)O)C(=O)N[C@@H](CCC(=O)O)C(N)=O` [PA4] (Palmitoyl-YAAAEEEE-NH2), the “glutamic acids in the deprotonated form at the transition” value [3] was 91%, the “CD Transition pH” value [2] was 6.0 and the “pH transition point at 10 μm PA” value [2, 6] was 6.0.
For “Palmitoyl-IAAAEEEEK(DO3A:Lu)-NH2 (Palmitoyl-IAAAEEEEK(DO3A)-NH2; also: DO3A chelates Lu) [PA8]”, the “pH transition point at 10 μm PA” value [2, 7] was 5.7.
In the case of “Palmitoyl-IAAAEEEEK(DO3A:Tb)-NH2 (Palmitoyl-IAAAEEEEK(DO3A)-NH2; also: DO3A chelates Tb) [PA7]”, the “pH transition point at 10 μm PA” value [2, 7] is reported as 5.7.
With “Palmitoyl-MAAAEEEEK-Rubipy (Palmitoyl-MAAAEEEEK(Rubipy); not fully specified (C-terminus); printed as Palmitoyl-MAAAEEEEK-Rubipy) [PA67]” the “FA, constant independent of pH” value [4] was roughly 0.05.
For “Palmitoyl-VAAAEEEEK(DO3A:Gd)-NH2 (Palmitoyl-VAAAEEEEK(DO3A)-NH2; also: DO3A chelates Gd) [PA6]”, the “pH transition point at 10 μm PA” value [2, 7] was 5.3 and the “nanofiber to micelle transition pH, lower than PA5” value ([2]; for each concentration (10 μM, 500 μM)) was 0.4 units.
For Palmitoyl-VAAAEEKE-NH2 [PA11], the “pH transition point at 10 μm PA” value [2, 6] was 6.2.
With “Palmitoyl-YAAAEEEEK(DO3A:Gd)-NH2 (Palmitoyl-YAAAEEEEK(DO3A)-NH2; also: DO3A chelates Gd) [PA9]” the “pH transition point at 10 μm PA” value [2, 7] was 5.1.
In the case of palmitoyl-YYAAEEEEK(DO3A:Gd)-NH2 [PA73], the nanofiber diameter ([5]; 500 μM, pH 5) is reported as 8.5±1.0 nm, the nanofiber diameter ([5]; 500 μM, pH 9) is reported as 8.6±0.9 nm and the CD pattern ([2]; 10 μM, pH 5-11) is reported as “β-sheet pattern”.
With “pentadecyl-YYAAEEEEK(DO3A:Gd)-NH2 [PA75]” the nanofiber diameter ([5]; FIG. 50: pH 5, PA74 500 μM, PA75 100 μM) was 8.1±1.3 nm, the “morphology by TEM” value ([5]; pH 5, PA74 500 μM, PA75 100 μM) was “nanofiber morphology” and the “morphology by TEM” value ([5]; pH 9, PA74 500 μM, PA75 100 μM) was “spherical micelle morphology”. For the same molecule, the “micelle to nanofiber transition pH, more basic than PA74” value ([2]; all concentrations observed) was 0.15-0.63 pH units.
